Reference: publication PMC9525273 (Nature Communications, 2022)
Where “and” joins values, the source holds several entries; their conditions need not be identical. Equal values may be shown once. Read-outs that look alike come from different tables or passages of the source.

Experiments:
[1] = system: isolated Dd2-Polδ P. falciparum trophozoites; experiment: [Na+]cyt measurement (SBFI), Na+ dysregulation; type: cell-based, Plasmodium falciparum; parameters: Final [Na+]cyt reached: unit not given here; conditions: for Final [Na+]cyt reached: Dd2-Polδ; for IC50: Plasmodium falciparum
Method: The ratio of the fluorescence intensity recorded at 340 nm and 380 nm (with an emission wavelength of 515 nm) was converted to [Na^+]cyt using a calibration procedure that entailed suspending parasites in solutions of varying [Na^+] containing ionophores. Fluorescence measurements and calibrations were performed at 37 °C, either with individual 1 mL suspensions using a PerkinElmer LS 50B fluorescence spectrometer (for resting [Na^+]cyt measurements for which the data are shown in Supplementary Fig. 7) or in 96-well plates using a Tecan Infinite M1000 PRO plate reader with i-control (version 1.12) software (all other [Na^+]cyt measurements).

Dd2-B2 parasites = experiment: P. falciparum proliferation assay (72 h, flow cytometry, SYBR Green I/MitoTracker); type: cell-based; conditions: Plasmodium falciparum, DD2, read-out: IC50 value
Method: (§1) Two types of parasite proliferation assays were employed in this study, with both yielding highly consistent results. For the NF54-based lines and Dd2-B2-PfATP4^G358S and its parent, assays were initiated with cultures containing predominantly ring-stage parasites with a parasitaemia of 0.3% and a haematocrit of 1%. All assays using NF54 were performed in culture media containing 10% O + human serum. The duration of the assays was 72 h and the concentration of DMSO was <0.5% (v/v). Serial dilutions of the test compounds were performed using a Tecan D300e digital dispenser, with parasite cultures added manually. Parasite survival was assessed by flow cytometry on an Intellicyt iQue3 (Essen Bioscience), with 1× SYBR Green I (Invitrogen) and 200 nM MitoTracker Deep Red FM (Invitrogen) used to stain the nucleus and the mitochondria in live parasites, respectively. The gating strategy used to quantify parasite survival, performed using FlowJo version 10 (FlowJo LLC.), is illustrated in Supplementary Fig. 9. IC50 and IC90 values were calculated by linear interpolation of the dose-response data.

[2] = system: Dd2-B2-PfATP4^G358S parasites; experiment: as above; type: cell-based; conditions: Plasmodium falciparum; Dd2-B2-PfATP4G358S; mean ± SEM
Method: as §1

[3] = system: parasite lines with a G358S mutation in PfATP4; experiment: P. falciparum proliferation assays, statements on all lines with the G358S mutation; type: cell-based, Plasmodium falciparum
Method: as §1
For experiments with all other parasites, the effects of compounds of interest on parasite proliferation was measured in 96-well plates containing serial dilutions of the compounds in culture medium, with a fluorescent DNA-intercalating dye used to detect surviving parasites. The assays were initiated with erythrocytes infected with predominantly ring-stage parasites, and the starting parasitaemia and haematocrit were both 1%. […] Fluorescence was measured using a FLUOstar OPTIMA plate reader (BMG LABTECH), with OPTIMA version 2.20R2 and MARS Data Analysis Software version 3.01 R2 (BMG LABTECH).

[4] = DD2, 1.5 h, pH 7.1, Dd2-Polδ, ~90 min exposure, 37 °C, pH 7.1, mean ± SEM, read-out: IC50 for Na+ dysregulation
[5] = DD2, Dd2-Polδ, MEAN, source data of Table 1 (nM there), read-out: IC50 for Na+ dysregulation, MEAN

## N#Cc1cc(NC(=O)[C@H]2c3ccccc3C(=O)N(CC(F)(F)F)[C@@H]2c2cccnc2)ccc1F [(+)-SJ733]
[1]; [(+)-SJ733] 9.8 nM, MEAN
  Final [Na+]cyt reached: 24.0
[1]; [(+)-SJ733] 19.5 nM, MEAN
  Final [Na+]cyt reached: 33.0
[1]; [(+)-SJ733] 39.1 nM, MEAN
  Final [Na+]cyt reached: 53.8
[1]; [(+)-SJ733] 78.1 nM, MEAN
  Final [Na+]cyt reached: 78.4
[1]; [(+)-SJ733] 156.3 nM, MEAN
  Final [Na+]cyt reached: 97.5
[1]; [(+)-SJ733] 156.3 nM, single experiments
  Final [Na+]cyt reached: 122.9 and 77.5 and 89.5 and 99.9
[1]; [(+)-SJ733] 312.5 nM, MEAN
  Final [Na+]cyt reached: 102.1
[1]; [(+)-SJ733] 312.5 nM, single experiments
  Final [Na+]cyt reached: 131.1 and 85.2 and 96.4 and 95.7
[1]; [(+)-SJ733] 625 nM, MEAN
  Final [Na+]cyt reached: 112.5
[1]; [(+)-SJ733] 625 nM, single experiments
  Final [Na+]cyt reached: 132.7 and 104.6 and 109.2 and 103.6
[1]; [(+)-SJ733] 2500 nM, MEAN
  Final [Na+]cyt reached: 112.4
[1]; [(+)-SJ733] 2500 nM, single experiments
  Final [Na+]cyt reached: 123.5 and 114.1 and 104.4 and 107.6
[1]; [(+)-SJ733] 5000 nM, MEAN
  Final [Na+]cyt reached: 111.0
[1]; [(+)-SJ733] 5000 nM, single experiments
  Final [Na+]cyt reached: 138.3 and 95.8 and 115.2 and 94.7
[1]; [(+)-SJ733] 10000 nM, MEAN
  Final [Na+]cyt reached: 115.2
[1]; [(+)-SJ733] 10000 nM, single experiments
  Final [Na+]cyt reached: 139.1 and 108.5 and 119.1 and 94.2
[1]; [(+)-SJ733] 20000 nM, MEAN
  Final [Na+]cyt reached: 108.1
[1]; [(+)-SJ733] 20000 nM, single experiments
  Final [Na+]cyt reached: 139.5 and 98.0 and 111.1 and 84.0
[1]; [4]
  IC50: 55 ± 15 nM
[1]; [5]
  IC50: 55 nM
[1]; vs cipargamin, [Na+]cyt assays (P. falciparum, T. gondii) and P. falciparum proliferation assays
  difference in potency between the drugs: > 6 fold
Dd2-B2 parasites
  IC50: 122 ± 7 nM
[2]
  IC50: 23000 ± 3200 nM
[3]; Plasmodium falciparum, all parasite lines with a G358S mutation in PfATP4 tested in this study
  IC50: > 9000 nM

## C[C@H]1Cc2c([nH]c3cc(Cl)c(F)cc23)[C@@]2(N1)C(=O)Nc1ccc(Cl)cc12 [Cipargamin]
[1]; [cipargamin] 0.06 nM, MEAN
  Final [Na+]cyt reached: 13.0
[1]; [cipargamin] 0.12 nM, MEAN
  Final [Na+]cyt reached: 12.3
[1]; [cipargamin] 0.244 nM, MEAN
  Final [Na+]cyt reached: 15.5
[1]; [cipargamin] 0.5 nM, MEAN
  Final [Na+]cyt reached: 26.2
[1]; [cipargamin] 1.0 nM, MEAN
  Final [Na+]cyt reached: 27.3
[1]; [cipargamin] 2.0 nM, MEAN
  Final [Na+]cyt reached: 45.7
[1]; [cipargamin] 3.9 nM, MEAN
  Final [Na+]cyt reached: 57.4
[1]; [cipargamin] 7.8 nM, MEAN
  Final [Na+]cyt reached: 88.5
[1]; [cipargamin] 15.6 nM, MEAN
  Final [Na+]cyt reached: 98.7
[1]; [cipargamin] 31.3 nM, MEAN
  Final [Na+]cyt reached: 113.1
[1]; [cipargamin] 62.5 nM, MEAN
  Final [Na+]cyt reached: 115.1
[1]; [cipargamin] 62.5 nM, single experiments
  Final [Na+]cyt reached: 78.0 and 146.2 and 96.4 and 129.7 and 125.5
[1]; [cipargamin] 250 nM, MEAN
  Final [Na+]cyt reached: 115.9
[1]; [cipargamin] 250 nM, single experiments
  Final [Na+]cyt reached: 94.4 and 105.7 and 130.4 and 132.9
[1]; [4]
  IC50: 8.4 ± 3 nM
[1]; [5]
  IC50: 8.38 nM
Dd2-B2 parasites
  IC50: 2.17 ± 0.24 nM
[2]
  IC50: 1640 ± 80 nM

## C[C@H]1[C@@H](O)O[C@@H]2O[C@@]3(C)CC[C@H]4[C@H](C)CC[C@@H]1[C@@]24OO3 [Dihydroartemisinin]
[3]; G358S lines vs PfATP4 wild-type controls
  effect of the G358S mutation in PfATP4 on parasite susceptibility: no effect
